Source: patent publication US8940865B2, “Myocardial peptide, preparation method and uses thereof” (Dalian Zhen-Ao Pharmaceutical Co, Ltd., priority 2008, dated 2015)
Values joined by “and” are separate entries in the source; they are usually repeats but may differ in a detail not shown here. Identical values can stand only once.

Legend:
[1] = tested on: primary culture myocardium cell damaged by hypoxia/reoxygenation; assay: Anti-hypoxia/reoxygenation injury effect on primary culture myocardium cell (MTT); format: cell-based, Neonatal SD rat
Excerpt: Take ventricle from Neonatal SD rat, wash with D-Hank's and cut to small pieces, digest with collagenase II to obtain the myocardium cell and fibroblast, which are cultivated with high glucose DMEM (dmem-h-15) culture medium containing 15% fetal bovine serum. Remove the fibroblast through differential adhesion and chemistry method, and inoculate myocardium cell on the 96-well plates.
2.1.3 Anti-Hypoxia/Reoxygenation Injury Effect of CMPC to Primary Culture Myocardium Cell.
Cell cultivation method is the same as that in 2.1.1
Preparation of model: Preparing the model by using the myocardium cell cultured for 48˜72 h, dividing the cell on the culture plate to following groups: Control Group, Model Group, Verapamil Group (2, 0.4, 0.08 mg/l final concentration) and CMPM Group (final concentration of 50, 10, 2, 0.4, 0.08, 0.016, 0.0032 mg/l), 3 wells for every group. Except the Control Group, the other groups are prepared by following method: placing the monolayer myocardium cell on center of culture plate on low glucose medium (containing Verapamil or CMPM with corresponding concentration), then placing the culture plate into the vacuum drying machine, filling nitrogen, and hermetically culturing, causing myocardial injury after oxygen lack for 15 hours, then being cultured for 1 hour by high glucose DMEM medium (95% atmosphere and 5% CO2) to cause reoxygention injury. Measuring the absorbance value at 540 nm by using MTT method, and the same as above, calculating the protective rate to figure out EC50.

[2] = tested on: vitro cultured myocardium poisoned by adriamycin; assay: Activity detection experiment of cultivation of myocardium cell (MTT); format: cell-based; conditions: mitochondria dehydrogenase activity of adriamycin-damaged myocardium, listed as peptide
Excerpt: “Activity detection experiment of cultivation of myocardium cell” provided by DaLian Zhen-Ao Pharmaceutical CO., LTD is adopted in the activity detection. The experiment is based on test of vitro cultured myocardium poisoned by adriamycin, wherein, […] (MTT) is used as reaction indicator to observe the enhancement of the activity of mitochondria dehydrogenase of the damaged myocardium conducted by cardio myopeptidin, to determine the protective effect of myocardium.

[3] = tested on: primary culture myocardium cell damaged by adriamycin; assay: Effect of CMPC against adriamycin injury of primary culture myocardium cell (MTT); format: cell-based, Neonatal SD rat
Experimental: Remove the fibroblast through differential adhesion and chemistry method, and inoculate myocardium cell on the 96-well plates.
2.1.2 The Against Function of Cmpc to Injury of Adriamycin to Primary Culture Myocardium Cell.
Cell culture method is the same as 2.1.1
Preparation of model: Blank Control Group: cultivating myocardium cell with DMEM-H-15;
Model Group: adding 1 mg/L adriamycin, washing the plate with DMEM-H-15 two times after being cultivated for 1 h, adding DMEM-H-15 for cultivation;
Protective rate=(Ax−Amodel)/(Acontrol−Amodel)×100%;
(Ax, Amode, Acontrol respectively represent Absorbance value of Drug administration groups, Model Group and Blank control group.

KGAWSNVLRGMGGAF [CMPC, Lys-Gly-Ala-Trp-Ser-Asn-Val-Leu-Arg-Gly-Met-Gly-Gly-Ala-Phe]
% (protective rate) ([1]; Plate 1, Dosage 0.0032 mg/L): 4.11%
A540 ([1]; Plate 1, Dosage 0.0032 mg/L): 0.496 ± 0.031
% (protective rate) ([1]; Plate 1, Dosage 0.016 mg/L): 14.69%
A540 ([1]; Plate 1, Dosage 0.016 mg/L): 0.526 ± 0.032
% (protective rate) ([1]; Plate 1, Dosage 0.08 mg/L): 26.09%
A540 ([1]; Plate 1, Dosage 0.08 mg/L): 0.558 ± 0.025
% (protective rate) ([1]; Plate 1, Dosage 0.4 mg/L): 38.95%
A540 ([1]; Plate 1, Dosage 0.4 mg/L): 0.594 ± 0.043
% (protective rate) ([1]; Plate 1, Dosage 2 mg/L): 28.91%
A540 ([1]; Plate 1, Dosage 2 mg/L): 0.566 ± 0.057
% (protective rate) ([1]; Plate 1, Dosage 10 mg/L): 17.74%
A540 ([1]; Plate 1, Dosage 10 mg/L): 0.534 ± 0.033
% (protective rate) ([1]; Plate 1, Dosage 50 mg/L): 9.05%
A540 ([1]; Plate 1, Dosage 50 mg/L): 0.510 ± 0.030
% (protective rate) ([1]; Plate 2, Dosage 0.0032 mg/L): 20.37%
A540 ([1]; Plate 2, Dosage 0.0032 mg/L): 0.543 ± 0.052
% (protective rate) ([1]; Plate 2, Dosage 0.016 mg/L): 22.85%
A540 ([1]; Plate 2, Dosage 0.016 mg/L): 0.550 ± 0.024
% (protective rate) ([1]; Plate 2, Dosage 0.08 mg/L): 48.52%
A540 ([1]; Plate 2, Dosage 0.08 mg/L): 0.622 ± 0.047
% (protective rate) ([1]; Plate 2, Dosage 0.4 mg/L): 40.20%
A540 ([1]; Plate 2, Dosage 0.4 mg/L): 0.599 ± 0.032
% (protective rate) ([1]; Plate 2, Dosage 2 mg/L): 30.99%
A540 ([1]; Plate 2, Dosage 2 mg/L): 0.573 ± 0.052
% (protective rate) ([1]; Plate 2, Dosage 10 mg/L): 19.36%
A540 ([1]; Plate 2, Dosage 10 mg/L): 0.540 ± 0.026
% (protective rate) ([1]; Plate 2, Dosage 50 mg/L): 18.12%
A540 ([1]; Plate 2, Dosage 50 mg/L): 0.536 ± 0.036
% (protective rate) ([1]; Plate 3, Dosage 0.0032 mg/L): 15.86%
A540 ([1]; Plate 3, Dosage 0.0032 mg/L): 0.763 ± 0.018
% (protective rate) ([1]; Plate 3, Dosage 0.016 mg/L): 24.20%
A540 ([1]; Plate 3, Dosage 0.016 mg/L): 0.777 ± 0.014
% (protective rate) ([1]; Plate 3, Dosage 0.08 mg/L): 38.05%
A540 ([1]; Plate 3, Dosage 0.08 mg/L): 0.800 ± 0.020
% (protective rate) ([1]; Plate 3, Dosage 0.4 mg/L): 47.29%
A540 ([1]; Plate 3, Dosage 0.4 mg/L): 0.815 ± 0.014
% (protective rate) ([1]; Plate 3, Dosage 2 mg/L): 64.26%
A540 ([1]; Plate 3, Dosage 2 mg/L): 0.843 ± 0.032
% (protective rate) ([1]; Plate 3, Dosage 10 mg/L): 34.43%
A540 ([1]; Plate 3, Dosage 10 mg/L): 0.790 ± 0.023
% (protective rate) ([1]; Plate 3, Dosage 50 mg/L): 14.96%
A540 ([1]; Plate 3, Dosage 50 mg/L): 0.761 ± 0.019
Activity value [2]: 2.3570 and 2.7328 and 2.564
% (protective rate) ([3]; Plate 1, Dosage 0.0032 mg/L): 2.01%
A540 ([3]; Plate 1, Dosage 0.0032 mg/L): 0.662 ± 0.036
% (protective rate) ([3]; Plate 1, Dosage 0.016 mg/L): 33.08%
A540 ([3]; Plate 1, Dosage 0.016 mg/L): 0.695 ± 0.039
% (protective rate) ([3]; Plate 1, Dosage 0.08 mg/L): 40.49%
A540 ([3]; Plate 1, Dosage 0.08 mg/L): 0.703 ± 0.012
% (protective rate) ([3]; Plate 1, Dosage 0.4 mg/L): 58.27%
A540 ([3]; Plate 1, Dosage 0.4 mg/L): 0.723 ± 0.018
% (protective rate) ([3]; Plate 1, Dosage 2 mg/L): 27.98%
A540 ([3]; Plate 1, Dosage 2 mg/L): 0.690 ± 0.025
% (protective rate) ([3]; Plate 1, Dosage 10 mg/L): 4.79%
A540 ([3]; Plate 1, Dosage 10 mg/L): 0.665 ± 0.032
% (protective rate) ([3]; Plate 1, Dosage 50 mg/L): 2.47%
A540 ([3]; Plate 1, Dosage 50 mg/L): 0.662 ± 0.031
% (protective rate) ([3]; Plate 2, Dosage 0.0032 mg/L): 36.17%
A540 ([3]; Plate 2, Dosage 0.0032 mg/L): 0.755 ± 0.033
% (protective rate) ([3]; Plate 2, Dosage 0.016 mg/L): 35.55%
A540 ([3]; Plate 2, Dosage 0.016 mg/L): 0.755 ± 0.024
% (protective rate) ([3]; Plate 2, Dosage 0.08 mg/L): 49.30%
A540 ([3]; Plate 2, Dosage 0.08 mg/L): 0.769 ± 0.055
% (protective rate) ([3]; Plate 2, Dosage 0.4 mg/L): 56.11%
A540 ([3]; Plate 2, Dosage 0.4 mg/L): 0.777 ± 0.057
% (protective rate) ([3]; Plate 2, Dosage 2 mg/L): 33.85%
A540 ([3]; Plate 2, Dosage 2 mg/L): 0.753 ± 0.065
% (protective rate) ([3]; Plate 2, Dosage 10 mg/L): 33.54%
A540 ([3]; Plate 2, Dosage 10 mg/L): 0.752 ± 0.039
% (protective rate) ([3]; Plate 2, Dosage 50 mg/L): 33.08%
A540 ([3]; Plate 2, Dosage 50 mg/L): 0.752 ± 0.036
% (protective rate) ([3]; Plate 3, Dosage 0.016 mg/L): 55.92%
A540 ([3]; Plate 3, Dosage 0.016 mg/L): 0.810 ± 0.020
% (protective rate) ([3]; Plate 3, Dosage 0.08 mg/L): 60.35%
A540 ([3]; Plate 3, Dosage 0.08 mg/L): 0.819 ± 0.016
% (protective rate) ([3]; Plate 3, Dosage 0.4 mg/L): 42.34%
A540 ([3]; Plate 3, Dosage 0.4 mg/L): 0.781 ± 0.050
% (protective rate) ([3]; Plate 3, Dosage 2 mg/L): 39.42%
A540 ([3]; Plate 3, Dosage 2 mg/L): 0.775 ± 0.008
% (protective rate) ([3]; Plate 3, Dosage 10 mg/L): 36.41%
A540 ([3]; Plate 3, Dosage 10 mg/L): 0.768 ± 0.057
% (protective rate) ([3]; Plate 3, Dosage 50 mg/L): 30.49%
A540 ([3]; Plate 3, Dosage 50 mg/L): 0.756 ± 0.014
